# In patent US20240239774A1, “SOLUBLE ADENYLYL CYCLASE (SAC) INHIBITORS AND USES THEREOF” (Cornell University, priority 2021, published 2024):
# Where “and” joins values, the source holds several entries; their conditions need not be identical. Equal entries are not always repeated.
# Legend:
# mouse sperm [1] = experiment: Ex vivo sperm tyrosine phosphorylation (Western blot) from injected mice; format: in vivo; conditions: 50 mg/kg i.p., one hour post injection
# Experimental: After 15 minutes swim-out at 37° C., sperm from two caudae were combined and counted using a hematocytometer. For capacitation, sperm were incubated for 90 minutes in TYH containing 3 mg/ml BSA and 25 mM NaHCO3 in a 37° C. incubator. To control for the consequences of dilution during isolation of epididyrnal mouse sperm for ex vivo assays, the ability for bicarbonate to induce a prototypical pattern of tyrosine phosphorylation (pY) which is a widely used molecular hallmark of capacitation was assessed [Reference 80]. Bicarbonate-induced pY is known to be sAC dependent in vitro [References 37, 46, 62]. For experiments studying sperm from injected mice, ‘swim out’ was performed in 200 μl TYH, which corresponded to a 1:10 dilution from epididymis ([…] in 200 μl buffer). Capacitation induced changes were assessed by adding 50 μl of ‘swim out’ sperm to increasing volumes of non-capacitating or capacitating TYH buffer.
# Mouse sperm from vehicle or inhibitor-injected mice were isolated 1 hour from male mice injected (i.p.) with 150 μl of solution containing sAC inhibitor or vehicle. Sperm were diluted 1:20 to 1:1000 in capacitating TYH media. As control, sperm from vehicle-injected mice were diluted 1:1000 in non-capacitating and capacitating TYH buffer. The samples were incubated for 90 minutes, washed with 1 ml PBS and sedimented by centrifugation at 2,000×g for 3 minutes. The sedimented sperm were resuspended in 15 μl 2× Laemmli sample buffer [Reference 83], heated for 5 minutes at 95° C., supplemented with 8 μl β-mercaptoethanol and heated again for 5 minutes at 95° C. For Western blot analysis, proteins were transferred onto PVDF membranes (Thermo Scientific), probed with anti-phosphotyrosine antibodies, and analyzed using a cherniluminescence detection system. Image lab (Bio-Rad) was used for densitometric analysis of Western blots.
# immobilized sAC protein = experiment: Binding kinetics by surface plasmon resonance
# Experimental: After coupling, remaining reactive groups on the chip's surface were blocked with 1 M ethanolamine followed by 350 mM EDTA to wash away any free Ni^2+. […] All experiments included reference channels; i.e., inhibitor run over parallel channels without immobilized protein. Binding kinetics were determined by subtracting responses in the reference channels from responses in the active channels. Curves were fitted, and kon and koff values were determined using the Biacore 8K Insight Evaluation Software Version 2.0 (Cytiva) and a 1:1 binding kinetics model.
# fertility of male mice = experiment: Timed mating of inhibitor-injected male mice; format: in vivo, mouse; conditions: for Contraceptive efficacy: compared to vehicle-injected control
# Experimental: Single-housed naïve (i.e., uninjected and virgin) male and female C57B1/6 mice were acclimatized to reverse light cycle (dark: 11 am to 11 pm) for at least two weeks. […] Pregnancy and litter size were assessed in two ways. Either females were sacrificed 7 days following mating and implanted embryos counted, or females were permitted to go to term (21 days) and pups counted. A subset of the pups (both male and female) born from breakthrough pregnancies were permitted to mature and their fertility assessed in standard matings.
# [2] = Serum levels after single i.p. injection; format: in vivo, mouse; conditions: single intraperitoneal (i.p.) injection
# mouse sperm [3] = experiment: Flagellar beat analysis of single sperm; format: cell-based; conditions: stimulation with 25 mM NaHCO3; 5 μM Example 1 or 10 nM Example 133
# Experimental: An inverted dark-field video microscope (IX73; Olympus) with a 10× objective (mouse sperm) and a 20× objective (human sperm) (UPLSAPO, NA 0.8; Olympus) was combined with a high-speed camera (ORCA Fusion; Hamamatsu). Dark-field videos were recorded with a frame rate of 200 Hz. The temperature of the heated stage was set to 37° C. (stage top incubator WSKMX; TOKAI HIT).
# An inverted dark-field video microscope (IX73; Olympus) with a 10×objective (mouse sperm) or a 20×objective (human sperm) (UPLSAPO, NA 0.8; Olympus) was combined with a high-speed camera (ORCA Fusion; Hamamatsu). Dark-field videos were recorded with a frame rate of 200 Hz. The temperature of the heated stage was set to 37° C. (stage top incubator WSKMX; TOKAI HIT). The images were preprocessed with the imageJ plugin SpermQ Preparator (Gaussian blur with sigma 0.5 px; Subtract background method with radius 5 px) and analyzed using the ImageJ plugin SpermQ [Reference 84]. The beat frequency was determined from the highest peak in the frequency spectrum of the curvature time course, obtained by Fast Fourier Transform.
# epididymal mouse sperm [4] = experiment: Ex vivo sperm motility (CASA) from injected mice; format: in vivo; conditions: for sperm motility ex vivo: one hour post-injection, diluted 1:200 in inhibitor-free media
# Experimental: For ex vivo assessment of mouse sperm from inhibitor-injected mice, sperm (25 μl) isolated at the indicated time points (1 hour to 24 hours post-injection) were loaded on a […] Leja slide (Hamliton Thorne) and placed on a microscope stage at 37° C. Sperm movements of 10 fields of at least 500 sperm were examined using computer-assisted sperm analysis (CASA) via Hamilton-Thorne digital image analyzer (IVOS II, Hamilton Thorne Research, Beverly, MA) with the following parameters: 30 frames, frame rate: 60 Hz, cell size: 30-170 μm^2.
# epididymal mouse sperm [5] = experiment: Ex vivo cAMP in epididymal sperm from injected mice; conditions: 50 mg/kg i.p.; for bicarbonate-induced cAMP increase ex vivo: sperm isolated one hour after injection, minimally diluted
# Experimental: Sperm (50 μl) isolated at indicated time points (between 1 hour and 24 hours post-injection) were incubated in […] (1:20 dilution) or 450 μl (1:200 dilution) non-capacitating or capacitating TYH media for 12 minutes. Intracellular cAMP levels were quantified using the Direct cAMP ELISA (Enzo) as above.
# [6] = swim out sperm minimally diluted
# [7] = 50 mg/kg i.p. to males, mating time 8 hours
# [8] = 50 mg/kg i.p. to males, mating time 5 hours
# [9] = 50 mg/kg i.p. to males, mating time 11 hours
# [10] = 50 mg/kg i.p., mating 4 days, 1 week post-injection (recovery of fertility)
SMILES,capacitation-induced tyrosine phosphorylation (pY) pattern ex vivo (mouse sperm [1]; [6]),off-rate (T1/2) (immobilized sAC protein) [s],Pregnancy pairings (pregnancies per total pairings) (fertility of male mice; [7]),Pregnancy rate (fertility of male mice; [7]),Contraceptive efficacy (fertility of male mice; [7]) [%],time to maximum serum levels (C max) [2] [min],bicarbonate-induced change in flagellar beating / beat frequency (mouse sperm [3]),sperm motility ex vivo (epididymal mouse sperm [4]; 50 mg/kg i.p.),bicarbonate-induced cAMP increase ex vivo (epididymal mouse sperm [5]),also measured
"Cc1c(Cc2ccccc2)c(-c2cc(Cl)nc(N)n2)nn1C [Example 1, 4-(4-benzyl-1,5-dimethyl-pyrazol-3-yl)-6-chloro-pyrimidin-2-amine]",blocked,20,(14/45),31.1%,25,≤ 7.5,prevents bicarbonate-induced changes in flagellar beating pattern,indistinguishable from sperm isolated from vehicle-injected mice,absent,capacitation-induced tyrosine phosphorylation (pY) pattern ex vivo (mouse sperm [1]; diluted 25 fold): restored; bicarbonate-responsive cAMP synthesis ex vivo (epididymal mouse sperm [5]; sperm diluted 1:200 ex vivo): restored
Nc1nc(Cl)cc(-c2nn(C(F)F)cc2Cc2ccccc2OCCN2CCOC[C@H]2CO)n1 [Example 133],blocked,4550,(3/40),7.2% and 7.5%,82,≤ 7.5,more potent than Example 1,essentially immotile,absent,"capacitation-induced tyrosine phosphorylation (pY) pattern ex vivo (mouse sperm [1]; diluted 100 fold): remained blocked; mouse behavior, movements and mating behaviors (fertility of male mice; 50 mg/kg i.p.): did not adversely affect mouse behavior; Pregnancy pairings (pregnancies per total pairings) (fertility of male mice; [8]): (3/92); Pregnancy rate (fertility of male mice; [8]): 3.3% and 3.2%; Contraceptive efficacy (fertility of male mice; [8]): 90%; Pregnancy pairings (pregnancies per total pairings) (fertility of male mice; [9]): (7/45); Pregnancy rate (fertility of male mice; [9]): 16% and 15.6%; Contraceptive efficacy (fertility of male mice; [9]): 65%; Pregnancy pairings (pregnancies per total pairings) (fertility of male mice; [10]): (13/14); Pregnancy rate (fertility of male mice; [10]): 93% and 92.9%; sperm that recovered (progressive) motility (epididymal mouse sperm [4]; 50 mg/kg i.p., 9 hours post injection, diluted 1:200): 20%; cytotoxicity to sperm (epididymal mouse sperm [4]; exogenous membrane-permeable cAMP rescued motility): not cytotoxic; cAMP responsiveness ex vivo following dilution (epididymal mouse sperm [5]; 9 hours post-injection, diluted 1:200): partially recovered; cAMP response ex vivo following dilution (epididymal mouse sperm [5]; sperm isolated 1 hour or 4.5 hours post-injection, diluted 1:200): remained inhibited"
